Experimental data taken from patent US9522888B2, “Substituted bicyclic compounds” (BRISTOL-MYERS SQUIBB COMPANY, priority 2014, dated 2016).

Columns and labels:
circulating lymphocytes = test: Blood Lymphocyte Reduction (BLR) assay in rat; assay type: in vivo, Lewis rats; details: oral; for Percent reduction vs. control at 24 hr post-dose: blood lymphocytes; for lymphocyte reduction: rodent BLR assay, 24 hours post-dose, versus vehicle treated group
Protocol: Blood Lymphocyte Reduction (BLR) Assay in Rodent:
Lewis rats or BALB/c mice were dosed orally with vehicle alone (polyethylene glycol 300, “PEG300”) or with test compounds. Compounds were dosed as a solution or suspension in the vehicle, adjusted to reflect the free amount of test article in the event that salt forms are utilized. Blood was drawn at 24 hr and blood lymphocyte counts were determined on an ADVIA 120 Hematology Analyzer (Siemens Healthcare Diagnostics). The results were measured as a reduction in the percentage of circulating lymphocytes as compared to the vehicle treated group at the time of measurement. The results represent the average results of all animals within each treatment group (n=2-4).

human S1P1 = human S1P1 (Homo sapiens (Human), UniProt P21453); test: S1P1 binding assay (33P-S1P radioligand competition, CHO cell membranes); details: phosphate examples; read-out: S1P1 Binding
How it was run: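 Radioligand is 33P-S1P, competing for membranes from human S1P1-expressing CHO cells. Membranes resuspended in 50 mM HEPES pH 7.5, 100 mM NaCl, 1 mM MgCl2, 2 mM EDTA.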

[1] = target: S1P1 (membranes prepared from S1P1/CHO cells) (Homo sapiens (Human), UniProt P21453); test: Receptor [35S] GTPγS binding assay (S1P1 GTPγS); assay type: biochemical; details: phosphate examples; read-out: S1P1 GTPγS
How it was run: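 Membranes from S1P1-expressing CHO cells (3 μg protein/well) incubated with compound (11-point, 3-fold dilution) and 0.2 nM final [35S]GTPγS, 45 min at room temperature. Assay buffer: 20 mM HEPES pH 7.5, 10 mM MgCl2, 150 mM NaCl, 10 μM GDP, 0.1% fatty-acid-free BSA, 10 μg/ml saponin. Filter-bound radioactivity counted by scintillation; EC50 derived.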

[2] = target: S1P3 (membranes prepared from EDG3-Gal5-bla HEK293T cells) (Homo sapiens (Human), UniProt Q99500); test: Receptor [35S] GTPγS binding assay (S1P3 GTPγS); assay type: biochemical; details: phosphate examples; read-out: S1P3 GTPγS
How it was run: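 Membranes (3 μg protein/well) from S1P1/CHO cells or EDG3-Gal5-bla HEK293T cells (S1P3) were incubated 45 min at room temperature with 0.2 nM final [35S]GTPγS in HEPES pH 7.5 buffer with 10 μM GDP, MgCl2 and saponin. Bound label counted after filtration; EC50 from 11-point, 3-fold dilutions.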

hS1P1/CHO cells = hS1P1/CHO cells (Homo sapiens (Human), UniProt P21453); test: hS1P1 ERK phosphorylation (S1P1 pERK); assay type: cell-based; details: phosphate examples
How it was run: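 CHO cells expressing human S1P1, serum-starved 2 h, exposed to compound in HBSS/20 mM HEPES for 7 min at 37° C. Lysates assayed for phospho-ERK by SureFire kit; response given as % activation relative to 10 μM S1P.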

Sequence of S1P3 (membranes prepared from EDG3-Gal5-bla HEK293T cells) (Q99500 whole entry): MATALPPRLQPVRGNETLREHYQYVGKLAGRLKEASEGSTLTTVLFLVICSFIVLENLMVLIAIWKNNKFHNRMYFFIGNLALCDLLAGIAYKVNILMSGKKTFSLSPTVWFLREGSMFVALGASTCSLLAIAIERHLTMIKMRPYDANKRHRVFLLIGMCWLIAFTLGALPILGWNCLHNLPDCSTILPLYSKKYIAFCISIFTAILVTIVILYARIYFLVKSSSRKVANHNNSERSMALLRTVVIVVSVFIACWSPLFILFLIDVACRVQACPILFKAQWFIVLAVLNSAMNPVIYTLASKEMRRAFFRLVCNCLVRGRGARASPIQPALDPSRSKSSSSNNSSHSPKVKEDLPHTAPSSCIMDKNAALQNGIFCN
Sequence of hS1P1/CHO cells (P21453 whole entry): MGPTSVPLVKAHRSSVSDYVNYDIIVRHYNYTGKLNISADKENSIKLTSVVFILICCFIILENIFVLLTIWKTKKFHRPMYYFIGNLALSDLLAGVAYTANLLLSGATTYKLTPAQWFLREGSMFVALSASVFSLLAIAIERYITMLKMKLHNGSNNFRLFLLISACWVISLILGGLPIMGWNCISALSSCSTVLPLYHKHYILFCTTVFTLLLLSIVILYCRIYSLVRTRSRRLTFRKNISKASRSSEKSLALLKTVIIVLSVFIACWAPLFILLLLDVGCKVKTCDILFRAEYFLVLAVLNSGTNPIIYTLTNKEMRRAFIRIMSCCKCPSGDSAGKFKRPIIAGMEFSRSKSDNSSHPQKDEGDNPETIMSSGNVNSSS
Sequence of human S1P1 (P21453 whole entry): as above
Sequence of S1P1 (membranes prepared from S1P1/CHO cells) (P21453 whole entry): as above

| SMILES | Percent reduction vs. control at 24 hr post-dose (circulating lymphocytes; 0.1 mg/kg) [%] | Percent reduction vs. control at 24 hr post-dose (circulating lymphocytes; 0.3 mg/kg) [%] | lymphocyte reduction (circulating lymphocytes; 0.1 mg/kg) [%] | Percent reduction vs. control at 24 hr post-dose (circulating lymphocytes; 0.05 mg/kg) [%] | IC50 (human S1P1) [nM] | EC50 [1] [nM] | EC50 [2] [nM] | EC50 (hS1P1/CHO cells) [nM] |
| --- | --- | --- | --- | --- | --- | --- | --- | --- |
| COCCCCCC1CCc2cc([C@@H]3CC[C@](N)(CO)C3)ccc2C1 (single isomer, unassigned) [Example 674] | 30 | 73 | 30 |  |  |  |  |  |
| COCCCCCC1CCc2cc([C@@H]3CC[C@](N)(CO)C3)ccc2C1 (single isomer, unassigned) [Example 675] | 63 |  | 63 |  |  |  |  |  |
| COCCCCC[C@@H]1CCc2cc([C@H]3CC[C@](N)(CO)C3)ccc2C1 [Example 673, ((1R,3S)-1-amino-3-((R)-6-(5-methoxypentyl)-5,6,7,8-tetrahydronaphthalen-2-yl)cyclopentyl)methanol] | 62 |  |  |  |  |  |  |  |
| COc1cccc(CC[C@H]2CCc3cc([C@H]4CC[C@](N)(CO)C4)ccc3C2)c1 [Example 676, ((1R,3S)-1-amino-3-((S)-6-(3-methoxyphenethyl)-5,6,7,8-tetrahydronaphthalen-2-yl)cyclopentyl) methanol] | 63 |  |  |  |  |  |  |  |
| COc1cccc(CC[C@@H]2CCc3cc([C@H]4CC[C@](N)(CO)C4)ccc3C2)c1 [Example 677, ((1R,3S)-1-amino-3-((R)-6-(3-methoxyphenethyl)-5,6,7,8-tetrahydronaphthalen-2-yl)cyclopentyl)methanol] |  |  |  | 49 |  |  |  |  |
| CC(C)OCCC[C@@H]1CCc2cc([C@@H]3CC[C@@](N)(COP(=O)(O)O)C3)ccc2C1 [compound 602] |  |  |  |  | < 10 | < 10 | > 625 | < 10 |
| N[C@@]1(COP(=O)(O)O)CC[C@@H](c2ccc3c(c2)CC[C@@H](CCc2ccc4ccccc4n2)C3)C1 [compound 605] |  |  |  |  | < 10 | < 10 | > 625 | < 10 |
| CC(C)OCCCC[C@H]1CCc2cc([C@H]3CC[C@](N)(COP(=O)(O)O)C3)ccc2C1 [compound 610] |  |  |  |  | 10 to 100 | < 10 | > 100 | < 10 |
| N[C@]1(COP(=O)(O)O)CC[C@H](c2ccc3c(c2)CC[C@H](CS(=O)(=O)c2ccccc2)C3)C1 [compound 618] |  |  |  |  | 100 to 1000 | 100 to 1000 | > 625 | < 10 |
| CCCCC(C)(C)C(=O)OC1CCc2cc([C@H]3CC[C@@](N)(COP(=O)(O)O)C3)ccc2C1 (stereo partly shown) [compound 624] |  |  |  |  | 1000 to 10000 | < 10 | > 625 | 100 to 1000 |
| CCCCCCNC(=O)OC1CCc2cc([C@H]3CC[C@@](N)(COP(=O)(O)O)C3)ccc2C1 (stereo partly shown) [compound 626] |  |  |  |  | 10 to 100 | 10 to 100 | > 625 | < 10 |
| CCCCCC(=O)NC1CCc2cc([C@H]3CC[C@@](N)(COP(=O)(O)O)C3)ccc2C1 (stereo partly shown) [compound 629] |  |  |  |  | 100 to 1000 | 100 to 1000 | > 625 | < 10 |
| CCCC[C@H]1CCCC2(CCc3cc([C@H]4CC[C@](N)(COP(=O)(O)O)C4)ccc3C2)O1 (stereo partly shown) [compound 632] |  |  |  |  | 10 to 100 | 10 to 100 | > 625 | < 10 |
| CCCC[C@@H]1CCCC2(CCc3cc([C@H]4CC[C@](N)(COP(=O)(O)O)C4)ccc3C2)O1 (stereo partly shown) [compound 633] |  |  |  |  | 10 to 100 | 100 to 1000 | > 625 | < 10 |
| CCCCC1CCc2cc([C@H]3CC[C@](N)(COP(=O)(O)O)C3)ccc2C1=O (stereo partly shown) [compound 635] |  |  |  |  | < 10 | 10 to 100 | > 625 | < 10 |
| CCCC/C=C/[C@@H]1CCc2cc([C@H]3CC[C@](N)(COP(=O)(O)O)C3)ccc2C1 [compound 636] |  |  |  |  | 10 to 100 | 10 to 100 | > 625 | 10 to 100 |
| CCCC/C=C/[C@@H]1CCc2cc([C@H]3CC[C@](N)(COP(=O)(O)O)C3)ccc2C1 [compound 637] |  |  |  |  | < 10 | 10 to 100 | > 625 | 10 to 100 |
| COCCC/C=C/[C@H]1CCc2cc([C@H]3CC[C@](N)(COP(=O)(O)O)C3)ccc2C1 [compound 638] |  |  |  |  | < 10 | 10 to 100 | > 100 | < 10 |
| C=CCC/C=C/[C@@H]1CCc2cc([C@H]3CC[C@](N)(COP(=O)(O)O)C3)ccc2C1 [compound 639] |  |  |  |  | 10 to 100 | 10 to 100 | > 625 | 10 to 100 |

| SMILES | Percent reduction vs. control at 24 hr post-dose (circulating lymphocytes; 0.1 mg/kg) [%] | Percent reduction vs. control at 24 hr post-dose (circulating lymphocytes; 0.3 mg/kg) [%] | lymphocyte reduction (circulating lymphocytes; 0.1 mg/kg) [%] | Percent reduction vs. control at 24 hr post-dose (circulating lymphocytes; 0.05 mg/kg) [%] | IC50 (human S1P1) [nM] | EC50 [1] [nM] | EC50 [2] [nM] | EC50 (hS1P1/CHO cells) [nM] |
| --- | --- | --- | --- | --- | --- | --- | --- | --- |
| COCCC/C=C/[C@@H]1CCc2cc([C@H]3CC[C@](N)(COP(=O)(O)O)C3)ccc2C1 [compound 640] |  |  |  |  | < 10 | < 10 | > 625 | < 10 |
| COc1ccccc1/C=C/[C@@H]1CCc2cc([C@H]3CC[C@](N)(COP(=O)(O)O)C3)ccc2C1 [compound 641] |  |  |  |  | 100 to 1000 | 10 to 100 | > 625 | 10 to 100 |
| N[C@]1(COP(=O)(O)O)CC[C@H](c2ccc3c(c2)CC[C@@H](/C=C/C2CCOCC2)C3)C1 [compound 642] |  |  |  |  | 10 to 100 | < 10 | > 625 | < 10 |
| COc1cccc(/C=C/[C@@H]2CCc3cc([C@H]4CC[C@](N)(COP(=O)(O)O)C4)ccc3C2)c1 [compound 643] |  |  |  |  | < 10 | 10 to 100 | > 625 | 10 to 100 |
| Cc1cccc(/C=C/[C@@H]2CCc3cc([C@H]4CC[C@](N)(COP(=O)(O)O)C4)ccc3C2)c1 [compound 644] |  |  |  |  | 100 to 1000 | 10 to 100 | > 625 | 100 to 1000 |
| CC(C)CC/C=C/[C@@H]1CCc2cc([C@H]3CC[C@](N)(COP(=O)(O)O)C3)ccc2C1 [compound 645] |  |  |  |  | 100 to 1000 | 10 to 100 | > 625 | 10 to 100 |
| CCCCC=C[C@H]1CCc2cc([C@H]3CC[C@](N)(COP(=O)(O)O)C3)ccc2C1 [compound 648] |  |  |  |  | 10 to 100 | 10 to 100 | > 625 | 10 to 100 |
| CC/C=C/CC[C@@H]1CCc2cc([C@H]3CC[C@](N)(COP(=O)(O)O)C3)ccc2C1 [compound 650] |  |  |  |  | 10 to 100 | 100 to 1000 | > 625 | 10 to 100 |
| CC/C=C\CC[C@@H]1CCc2cc([C@H]3CC[C@](N)(COP(=O)(O)O)C3)ccc2C1 [compound 651] |  |  |  |  | 10 to 100 | 10 to 100 | > 625 | 10 to 100 |
| C/C=C\CCC[C@@H]1CCc2cc([C@H]3CC[C@](N)(COP(=O)(O)O)C3)ccc2C1 [compound 656] |  |  |  |  | 10 to 100 | 10 to 100 | > 625 | 10 to 100 |
| C/C=C\CCC[C@H]1CCc2cc([C@H]3CC[C@](N)(COP(=O)(O)O)C3)ccc2C1 [compound 657] |  |  |  |  | 10 to 100 | < 10 | > 625 | 10 to 100 |
| CC/C=C/CC[C@H]1CCc2cc([C@H]3CC[C@](N)(COP(=O)(O)O)C3)ccc2C1 [compound 658] |  |  |  |  | < 10 | 10 to 100 | > 625 | < 10 |
| C/C=C/CCCC[C@H]1CCc2cc([C@H]3CC[C@](N)(COP(=O)(O)O)C3)ccc2C1 [compound 659] |  |  |  |  | < 10 | < 10 | > 625 | 10 to 100 |
| C/C=C\CCCC[C@H]1CCc2cc([C@H]3CC[C@](N)(COP(=O)(O)O)C3)ccc2C1 [compound 660] |  |  |  |  | < 10 | < 10 | > 625 | 10 to 100 |
| C/C=C\CCCC[C@@H]1CCc2cc([C@H]3CC[C@](N)(COP(=O)(O)O)C3)ccc2C1 [compound 661] |  |  |  |  | < 10 | < 10 | > 625 | < 10 |
| C/C(=N\OCc1ccccc1)[C@@H]1CCc2cc([C@H]3CC[C@](N)(COP(=O)(O)O)C3)ccc2C1 [compound 664] |  |  |  |  | < 10 | < 10 | > 625 | < 10 |
| CCCCO/N=C(\C)[C@@H]1CCc2cc([C@H]3CC[C@](N)(COP(=O)(O)O)C3)ccc2C1 [compound 665] |  |  |  |  | < 10 | < 10 | > 625 | 10 to 100 |
| CCCC[S+]([O-])C[C@@H]1CCc2cc([C@H]3CC[C@](N)(COP(=O)(O)O)C3)ccc2C1 (stereo partly shown) [compound 668] |  |  |  |  | < 10 | < 10 | > 625 | 10 to 100 |
